According to patent US20230146455A1, “TREATMENT OF INFLAMMATORY DISEASES WITH PEPTIDES AND PHARMACEUTICAL COMPOSITIONS” (Yuyu Pharma, Inc., priority 2020, published 2023):
“And” between values parts separate entries of the source, which are not always exact repeats. Equal values may be shown once. Where a SMILES comes first, the peptide text is derived from it. [ ]: non-standard residue; d: D form. Hyp = O=C(O)[C@@H]1C[C@@H](O)CN1

Tested on: IL-4
Experiment: Example 9 Luminex, LPS hPBMCs: IL-4
Assay type: cell-based, human
Method: Treatment Human PBMCs were pretreated with YY-101, YDE-011 and YDE-043 or reference compound; Xiidra® at various concentration (ranging from 1 nM to 100 uM) for 2 h before stimulation. An equal volume of 0.5% DMSO was used as a vehicle control. Then, the cells were treated with LPS at 5 ug/ml. The supernatants from treated cells were harvested at 24 h and placed in a 96 well for Luminex cytokine & chemokine profiling using a Luminex 200 multiplex assay (Luminex; R&D system, USA).
The main study arm with triplicate wells per group in a 24-well plate: • 1. Blank • 2. PBMC: 0.5% DMSO • 3. PBMC+LPS (5 ug/ml) • 4. PBMC+YY-101 100 uM • 5. PBMC+YY-101 10 uM • 6. PBMC+YY-101 1 uM • 7. PBMC+YY-101 0.1 uM • 8. PBMC+YY-101 0.01 uM • 9. PBMC+LPS (5 ug/ml)+Xiidra®100 uM • 10. PBMC+LPS (5 ug/ml)+Xiidra® 10 uM • 11. PBMC+LPS (5 ug/ml)+Xiidra® 1 uM • 12. PBMC+LPS (5 ug/ml)+Xiidra®0.1 uM • 13. PBMC+LPS (5 ug/ml)+Xiidra®0.01 uM • 14. PBMC+LPS (5 ug/ml)+Xiidra®0.001 uM • 15. PBMC+LPS (5 ug/ml)+YY-101 100 uM • 16. PBMC+LPS (5 ug/ml)+YY-101 10 uM • 17. PBMC+LPS (5 ug/ml)+YY-101 1 uM • 18. PBMC+LPS (5 ug/ml)+YY-101 0.1 uM • 19. PBMC+LPS (5 ug/ml)+YY-101 0.01 uM • 20. PBMC+LPS (5 ug/ml)+YY-101 0.001 uM • 21. PBMC+LPS (5 ug/ml)+YDE-011 100 uM • 22. PBMC+LPS (5 ug/ml)+YDE-011 10 uM • 23. PBMC+LPS (5 ug/ml)+YDE-011 1 uM • 24. PBMC+LPS (5 ug/ml)+YDE-011 0.1 uM • 25. PBMC+LPS (5 ug/ml)+YDE-011 0.01 uM • 26. PBMC+LPS (5 ug/ml)+YDE-011 0.001 uM • 27. PBMC+LPS (5 ug/ml)+YDE-043 100 uM • 28. PBMC+LPS (5 ug/ml)+YDE-043 10 uM • 29. PBMC+LPS (5 ug/ml)+YDE-043 1 uM • 30. PBMC+LPS (5 ug/ml)+YDE-043 0.1 uM • 31. PBMC+LPS (5 ug/ml)+YDE-043 0.01 uM • 32. PBMC+LPS (5 ug/ml)+YDE-043 0.001 uM
Multiplex assay was used to measure 30 cytokines and chemokines. The 1:2, 1:10 and 1:200 diluted cell supernatant and serial dilution of the standard were dispensed into a 96 well plate at 50 ul/well. Then, the pre-mixed cocktail of antibody-coated magnetic beads was dispensed at 50 ul/well and incubated at room temperature for 2 h in a horizontal orbital microplate shaker at 800±500 rpm. The beads were washed using a magnetic device to prevent loss. The biotin-antibody was dispensed in 50 ul of each well and incubated at room temperature for 1 h in a shaker at 800±500 rpm. After washing, streptavidin-PE was added at 50 ul/well and incubated at room temperature for 30 min in a shaker under the same conditions. Finally, after washing, wash buffer (100 ul/well) was added to the plate and incubated in a shaker for 2 min. The Luminex™ 200 setting were set according to the manufacturer's protocol. The data was calculated with a standard five-parameter logistic nonlinear regression analysis of the data (xPonent software 4.2, USA). The levels of cytokine/chemokine are normalized to the live cell counts (1×10^5 cells/mL) and presented as concentrations per mL (pg/mL or ng/mL).

[1] = PBMC + LPS(5 ug/ml) + test article 0.001 uM, Mean
[2] = PBMC + LPS(5 ug/ml) + test article 0.001 uM, single replicates
[3] = PBMC + LPS(5 ug/ml) + test article 0.01 uM, Mean
[4] = PBMC + LPS(5 ug/ml) + test article 0.01 uM, single replicates
[5] = PBMC + LPS(5 ug/ml) + test article 0.1 uM, Mean
[6] = PBMC + LPS(5 ug/ml) + test article 0.1 uM, single replicates
[7] = PBMC + LPS(5 ug/ml) + test article 1 uM, Mean
[8] = PBMC + LPS(5 ug/ml) + test article 1 uM, single replicates
[9] = PBMC + LPS(5 ug/ml) + test article 10 uM, Mean
[10] = PBMC + LPS(5 ug/ml) + test article 10 uM, single replicates
[11] = PBMC + LPS(5 ug/ml) + test article 100 uM, Mean
[12] = PBMC + LPS(5 ug/ml) + test article 100 uM, single replicates

Row | SMILES | Concentration, Bead name: IL-4 [1] [pg/mL] | MFI, Bead name: IL-4 [1] | conc/live cell, Bead name: IL-4 [1] [pg/10^5] | Concentration, Bead name: IL-4 [2] | MFI, Bead name: IL-4 [2] | conc/live cell, Bead name: IL-4 [2] | Concentration, Bead name: IL-4 [3] [pg/mL] | MFI, Bead name: IL-4 [3] | conc/live cell, Bead name: IL-4 [3] [pg/10^5] | Concentration, Bead name: IL-4 [4] | MFI, Bead name: IL-4 [4] | conc/live cell, Bead name: IL-4 [4] | Concentration, Bead name: IL-4 [5] [pg/mL] | MFI, Bead name: IL-4 [5] | conc/live cell, Bead name: IL-4 [5] [pg/10^5] | Concentration, Bead name: IL-4 [6] | MFI, Bead name: IL-4 [6] | conc/live cell, Bead name: IL-4 [6] | Concentration, Bead name: IL-4 [7] [pg/mL] | MFI, Bead name: IL-4 [7] | further results
1 | CC(C)C[C@H](NC(=O)CNC(=O)[C@H](CC(C)C)NC(=O)[C@H](CCC(N)=O)NC(=O)CNC(=O)[C@@H]1C[C@@H](O)CN1)C(=O)N[C@@H](C)C(=O)NCC(=O)N1CCC[C@H]1C(=O)N[C@@H](CCCCN)C(=O)O [YDE-011] (H-[Hyp]GQLGLAGPK-OH) | 13.2 | −0.5 | 2.6 | 18.4 pg/mL and 7.7 pg/mL and 13.6 pg/mL | 0.0 and −1.0 and −0.5 | 4.1 pg/10^5 and 1.3 pg/10^5 and 2.3 pg/10^5 | 23.7 | 0.7 | 4.1 | 18.4 pg/ml and 26.4 pg/ml (2×) | 0.0 and 1.0 (2×) | 2.9 pg/10^5 and 4.3 pg/10^5 and 5.2 pg/10^5 | 22.4 | −0.3 | 2.5 | 18.4 pg/mL and 26.4 pg/mL | 0.0 and −2.0 and 1.0 | 2.8 pg/10^5 and 0.0 pg/10^5 and 4.6 pg/10^5 | 18.4 | −0.5 | conc/live cell, Bead name: IL-4 [7]: 2.4 pg/10^5; Concentration, Bead name: IL-4 [8]: 18.4 pg/mL; MFI, Bead name: IL-4 [8]: 0.0 (2×) and −1.5; conc/live cell, Bead name: IL-4 [8]: 3.3 pg/10^5 and 0.0 pg/10^5 and 3.8 pg/10^5; Concentration, Bead name: IL-4 [9]: 16.8 pg/mL; MFI, Bead name: IL-4 [9]: −0.2; conc/live cell, Bead name: IL-4 [9]: 3.2 pg/10^5; Concentration, Bead name: IL-4 [10]: 18.4 pg/ml (2×) and 13.6 pg/ml; MFI, Bead name: IL-4 [10]: 0.0 (2×) and −0.5; conc/live cell, Bead name: IL-4 [10]: 3.4 pg/10^5 and 2.3 pg/10^5 and 3.9 pg/10^5; Concentration, Bead name: IL-4 [11]: 7.7 pg/mL; MFI, Bead name: IL-4 [11]: −1.2; conc/live cell, Bead name: IL-4 [11]: 0.8 pg/10^5; Concentration, Bead name: IL-4 [12]: 7.7 pg/mL; MFI, Bead name: IL-4 [12]: −1.0 (2×) and −1.5; conc/live cell, Bead name: IL-4 [12]: 1.3 pg/10^5 (2×) and 0.0 pg/10^5
2 | CC(C)C[C@H](NC(=O)[C@H](CCC(N)=O)NC(=O)CNC(=O)[C@@H]1C[C@@H](O)CN1)C(=O)NCC(=O)O [YDE-043] (H-[Hyp]GQLG-OH; N-terminus and C-terminus assumed) | 26.0 | 1.0 | 5.2 | 26.4 pg/mL and 33.2 pg/mL and 18.4 pg/mL | 1.0 and 2.0 and 0.0 | 6.0 pg/10^5 and 5.5 pg/10^5 and 4.0 pg/10^5 | 11.3 | −0.7 | 2.2 | 7.7 pg/ml (2×) and 18.4 pg/ml | −1.0 (2×) and 0.0 | 1.7 pg/10^5 and 1.2 pg/10^5 and 3.7 pg/10^5 | 17.5 | 0.0 | 3.3 | 26.4 pg/mL and 18.4 pg/mL and 7.7 pg/mL | 1.0 and 0.0 and −1.0 | 5.3 pg/10^5 and 3.3 pg/10^5 and 1.4 pg/10^5 | 26.4 | 0.2 | conc/live cell, Bead name: IL-4 [7]: 3.5 pg/10^5; Concentration, Bead name: IL-4 [8]: 26.4 pg/mL; MFI, Bead name: IL-4 [8]: −1.5 and 1.0 (2×); conc/live cell, Bead name: IL-4 [8]: 0.0 pg/10^5 and 5.5 pg/10^5 and 5.0 pg/10^5; Concentration, Bead name: IL-4 [9]: 14.8 pg/mL; MFI, Bead name: IL-4 [9]: −0.3; conc/live cell, Bead name: IL-4 [9]: 2.7 pg/10^5; Concentration, Bead name: IL-4 [10]: 18.4 pg/ml (2×) and 7.7 pg/ml; MFI, Bead name: IL-4 [10]: 0.0 (2×) and −1.0; conc/live cell, Bead name: IL-4 [10]: 3.5 pg/10^5 and 1.4 pg/10^5 and 3.3 pg/10^5; Concentration, Bead name: IL-4 [11]: 7.7 pg/mL; MFI, Bead name: IL-4 [11]: −1.0; conc/live cell, Bead name: IL-4 [11]: 1.2 pg/10^5; Concentration, Bead name: IL-4 [12]: 7.7 pg/mL; MFI, Bead name: IL-4 [12]: −1.0; conc/live cell, Bead name: IL-4 [12]: 1.2 pg/10^5
